Columns and labels:
[1] = tested on: human small cell lung cancer (H1688) cells; test: Cytotoxicity MTT assay, H1688 cell line; type: cell-based; conditions: 37 °C, 24 h, read-out: cytotoxicity toward H1688 cell line, IC50
Description: The cytotoxicities of compounds were analyzed by using the human small cell lung cancer H1688 cell line and the 3-(4,5-dimethylthiazol-2-yl)-2,5-diphenyl tetrazolium bromide (MTT, Sigma-Aldrich, St. Louis, MO, USA) assay at 37 °C for 24 h.

[2] = Cell viability of dendritic cells (CCK-8); type: cell-based, murine; conditions: mouse, dendritic cells (DCs), CCK-8, 37 °C, read-out: cytotoxicity against DCs, IC50
Description: The DCs (1 × 10^6) were treated with tested compounds (100 μg/mL) and cultured at 37 °C for 24 h. Cytotoxicity was examined using a Cell Counting Kit-8 (CCK-8; Dojindo Molecular Technologies, Inc., Kumamoto, Japan) according to the manufacturer’s protocol. The absorbance was recorded on a microplate reader (Tecan Group Ltd., Männedorf, Switzerland) at a wavelength of 450 nm.

[3] = tested on: TNF-α expression in LPS-stimulated murine dendritic cells (DCs); test: TNF-α expression by LPS-induced DCs (ELISA); type: cell-based; conditions: Mus musculus, Dendritic cell, 100 ng/mL LPS, 24 h, read-out: inhibition of TNF-α expression in LPS-stimulated DCs, IC50
Description: The TNF-α expressions of LPS-induced DCs were measured by enzyme-link immunosorbent assay (ELISA), in the same way as the previously reported method. The DCs were treated with 100 ng/mL lipopolysaccharide (LPS) and the isolated compounds for 24 h. The optical density of the production of TNF-α was measured at 450 nm by the ELISA reader.

IC50 [3]	SMILES	IC50 [1]	IC50 at 24 h [2]
	C=C[C@@](C)(Cl)[C@@H](Cl)/C=C/C(=C/Cl)C(Cl)Cl (relative stereo) [(3R*,4S*,5E,7Z)-7-dichlorothyl-3,4,8-trichloro-3-methylocta-1,5,7-triene]	4.2 ± 2.1 µM	
23.1 ± 5.2 µM	O=c1c(O)c(-c2ccc(O)c(O)c2)oc2cc(O)cc(O)c12 [Quercetin]		78.8 ± 7.3 µM
	COC1OC2C=C(C)CCC=C(C)CCC3OC3(C)CCC2=C1C (stereo not drawn) [compound 3, 16β-Methoxyisosarcophytoxide]	27.5 ± 6.4 µM	
	COC1OC2C=C(C)CCC=C(C)CCC3OC3(C)CCC2=C1C (stereo not drawn) [compound 4, 16α-Methoxyisosarcophytoxide]	85.8 µM	

Reference: PMC9862023, “Isosarcophytoxide Derivatives with a 2,5-Dihydrofuran Moiety from the Soft Coral Sarcophyton cinereum” (Molecules, 2023)
